“Also recorded” adds a separate entry of the source.
How the values were obtained:
[1] = tested on: mouse model of seizure; assay: maximal electroshock (MES) test in the mouse; assay type: in vivo; conditions: for decrease in the number of mice showing tonic convulsions, as compared with vehicle controls: p<0.001
Protocol: Mice were administered MES (50 mA, rectangular current: 0.6 ms pulse width, 0.4 s duration, 50 Hz) via corneal electrodes connected to a constant current shock generator (Ugo Basile: type 7801). The number of tonic convulsions was recorded.
Twelve mice were studied per group. The test was performed blind.
The test substance, CBD-C4, was evaluated at 5 doses (3, 10, 30, 100 and 200 mg/kg), administered i.p. 60 minutes before MES, and compared with a vehicle control group (administered under the same experimental conditions).
Diazepam (2 mg/kg i.p.), administered i.p. 30 minutes before MES, was used as a reference substance and was compared with a vehicle group (administered i.p. 60 minutes before MES).
Data was analysed by comparing treated groups with the appropriate vehicle control using Fisher's Exact Probability tests.

[2] = Toxicokinetic evaluation in embryo-foetal development study; assay type: in vivo, rat
Protocol: Three groups of 20 time-mated female Wistar (Han) rats were given CBD-C4 once daily by the oral (gavage) route from Day 6 to Day 17 of gestation at dose levels of 1, 10 or 100 mg/kg/day (at a constant dose volume of 5 mL/kg), to cover the period of organogenesis.
Blood samples were taken for toxicokinetic evaluation at pre-dose, 1, 2, 4, 6 and 24 hours after dosing on Days 6 and 17 of gestation. Clinical observations, body weight and food consumption were recorded. On Day 21 of gestation (GD 21) the females were euthanised, and the progress and outcome of pregnancy was evaluated.

[3] = Rat micronucleus assay; assay type: in vivo; conditions: Sprague Dawley, rat, in vivo; male rats, oral gavage; read-out: estimate of the maximum tolerated dose
Protocol: (§1) CBD-C4 was tested for its potential to induce micronuclei (MN) in the polychromatic erythrocytes (PCE) of the bone marrow of treated rats to induce DNA damage in the liver of the same animals.
(§2) CBD-C4 was administered at a dose of 125, 250 and 500 mg/kg/day during this study. Vehicle and a positive control of ethyl methanesulfonate (EMS) at a dose of 150 mg/kg/day were tested alongside the CBD-C4.
(§3) A range finding study was performed on 9 male young adult out-bred Sprague Dawley rats justifying the chosen dose levels of CBD-C4 used during the study.
(§4) Animals were allocated into groups of six with the exception of the positive control which comprised three animals.
(§5) Rats were dosed by oral gavage with test article suspended in sesame oil, vehicle (sesame oil) or positive control.
(§6) Blood samples were taken for bioanalysis and tissue samples were removed from animals at necropsy from the liver and femur.
(§7) Bone marrow sampling, micronucleus slide preparation and comet cell suspensions were undertaken to determine level of toxicity of CBD-C4.

[4] = tested on: polychromatic erythrocytes (PCE) of the bone marrow; assay: Rat micronucleus assay; assay type: in vivo
Protocol: as §1, §2, §3, §4, §5, §6, §7

[5] = tested on: DNA damage in the liver; assay: Alkaline Comet assay; assay type: in vivo, rat
Protocol: as §1, §2, §3, §4, §5, §6, §7

[6] = tested on: Salmonella typhimurium (TA98, TA100, TA1535, TA1537 and TA102); assay: Ames test; assay type: cell-based; conditions: absence and presence of S-9
Protocol: The aim of this study was to evaluate the potential mutagenic activity of CBD-C4 by examining its ability to revert five histidine-requiring strains of Salmonella typhimurium in the absence and presence of a rat liver metabolising system (S-9).
Control treatments were performed with 2-nitrofluorene (2NF) at a final concentration of 5 μg/plate; Sodium azide (NaN3) at a final concentration of 2 μg/plate; 9-aminoacridine (AAC) at a final concentration of 50 μg/plate; Mitomycin C (MMC) at a final concentration of 0.2 μg/plate; Benzo[a]pyrene (B[a]P) at a final concentration of 10 μg/plate; and 2-aminoanthracene (AAN) at a final concentration of 5 and 20 μg/plate.
Treatments were carried out both in the absence and presence of S-9 by addition of either buffer solution or 10% S-9 mix respectively.
Five strains of Salmonella typhimurium bacteria (TA98, TA100, TA1535, TA1537 and TA102) were used in this study.
Bacteria were cultured at 37±1° C. for 10 hours in nutrient broth, containing ampicillin or ampicillin and tetracycline as appropriate, to provide bacterial cultures in the range of approximately 10^8 to 10^9 cells/mL, based on cell count data from testing of each strain batch. […]
Following incubation, these plates were examined for evidence of toxicity to the background lawn, and where possible revertant colonies were counted. […]

[7] = 125, 250 and 500 mg/kg/day oral gavage

## C=C(C)[C@@H]1CCC(C)=C[C@H]1c1c(O)cc(CCCC)cc1O [CBD-C4, (1′R,2′R)-4-butyl-5′-methyl-2′-(prop-1-en-2-yl)-1′,2′,3′,4′-tetrahydro-[1,1′-biphenyl]-2,6-diol]
[1]; 100 mg/kg i.p. 60 minutes before MES
  decrease in the number of mice showing tonic convulsions, as compared with vehicle controls: −100%
[1]; 200 mg/kg i.p. 60 minutes before MES
  decrease in the number of mice showing tonic convulsions, as compared with vehicle controls: −100%
[1]; lower doses 3, 10 and 30 mg/kg i.p. 60 minutes before MES
  effect on number of mice showing tonic convulsions: No effects
[2]; 1 mg/kg/day
  extent of accumulation (exposure after 12 daily doses vs single dose): approximately 5 fold
[2]; 100 mg/kg/day
  extent of accumulation (exposure after 12 daily doses vs single dose): ~2 fold
[2]; GD 6, 1 mg/kg/day oral
  time of maximum plasma concentration post dose: 2 h
[2]; GD 6, higher dose levels (10, 100 mg/kg/day) oral
  time of maximum plasma concentration post dose: 6 h
[2]; GD 17, after 12 daily doses, all dose levels
  time of maximum plasma concentration post dose: 4 h
[2]; both higher dose levels (10, 100 mg/kg/day)
  plasma levels 24 hours after dosing: quantifiable levels of CBD-C4 remained in plasma
[2]; both sampling occasions (GD 6, GD 17)
  increases in exposure (Cmax and AUC(0-t)) relative to the increase in dose: supra-proportional
[2]; lowest dose level (1 mg/kg/day), both sampling occasions
  time to complete elimination from plasma after dosing: ≤ 24 h
[3]
  MTD: ~500 mg/kg/day
[4]; [7]
  bone marrow toxicity: no evidence of test article related bone marrow toxicity
[4]; all doses (125, 250 and 500 mg/kg/day) oral gavage
  micronucleus PCE frequencies: comparable with the vehicle control group
[4]; male rats treated up to 500 mg/kg/day
  induction of micronuclei in polychromatic erythrocytes of the bone marrow: did not induce an increase in micronuclei; also recorded: No genotoxicity was observed
[5]; [7]
  % hedgehogs in liver: no dose-related increase
[5]; all groups, 125, 250 and 500 mg/kg/day oral gavage
  group mean tail intensity and tail moment: comparable with the group mean vehicle control data
[5]; up to 500 mg/kg/day oral gavage
  DNA damage in the liver (Comet assay): did not induce DNA damage; also recorded: No genotoxicity was observed
[6]; 5-5000 μg/plate, all test strains
  increases in revertant numbers vs concurrent vehicle control: no increases in revertant numbers
[6]; five strains
  mutagenic activity: No genotoxicity was observed; also recorded: no evidence of any CBD-C4 mutagenic activity; also recorded: does not induce mutation

Reference: patent US20220016048A1, “CANNABIDIOL-TYPE CANNABINOID COMPOUND” (GW Research Limited, priority 2018, published 2022)
